#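 Compound exposure: 48 hours, 5 concentrations, 96-well plates. TGI denotes the concentration required for complete inhibition of growth.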
# Experiments:
# Test in all cases: growth of human tumour cells (NCI), 48 h
# 786-0 renal = test system: 786-0 renal
# A498 renal = test system: A498 renal
# A549 NSCLC = test system: A549 NSCLC
# ACHN renal = test system: ACHN renal
# BT-549 breast = test system: BT-549 breast
# CAKI-1 renal = test system: CAKI-1 renal
# CCRF-CEM leukemia = test system: CCRF-CEM leukemia
# COLO 205 colon = test system: COLO 205 colon
# DU-145 prostate = test system: DU-145 prostate
# EKVX NSCLC = test system: EKVX NSCLC
# HCC-2998 colon = test system: HCC-2998 colon
# HCT-116 colon = test system: HCT-116 colon
# HCT-15 colon = test system: HCT-15 colon
# HL-60(TB) leukemia = test system: HL-60(TB) leukemia
# HOP-92 NSCLC = test system: HOP-92 NSCLC
# HS 578T breast = test system: HS 578T breast
# HT29 colon = test system: HT29 colon
# IGROV1 ovarian = test system: IGROV1 ovarian
# K-562 leukemia = test system: K-562 leukemia
# KM12 colon = test system: KM12 colon
# LOX IMVI melanoma = test system: LOX IMVI melanoma
# M14 melanoma = test system: M14 melanoma
# MALME-3M melanoma = test system: MALME-3M melanoma
# MCF7 breast = test system: MCF7 breast
# MDA-MB-231 breast = test system: MDA-MB-231 breast
# MDA-MB-435 = test system: MDA-MB-435
# MDA-N = test system: MDA-N
# MOLT-4 leukemia = test system: MOLT-4 leukemia
# NCI-H226 lung = test system: NCI-H226 lung
# NCI-H23 lung = test system: NCI-H23 lung
# NCI-H460 lung = test system: NCI-H460 lung
# NCI-H522 lung = test system: NCI-H522 lung
# NCI/ADR-RES ovarian = test system: NCI/ADR-RES ovarian
# OVCAR-3 ovarian = test system: OVCAR-3 ovarian
# OVCAR-4 ovarian = test system: OVCAR-4 ovarian
# OVCAR-5 ovarian = test system: OVCAR-5 ovarian
# OVCAR-8 ovarian = test system: OVCAR-8 ovarian
# PC-3 prostate = test system: PC-3 prostate
# RPMI-8226 leukemia = test system: RPMI-8226 leukemia
# SF-268 CNS = test system: SF-268 CNS
# SF-295 CNS = test system: SF-295 CNS
# SF-539 CNS = test system: SF-539 CNS
# SK-MEL-2 melanoma = test system: SK-MEL-2 melanoma
# SK-MEL-28 melanoma = test system: SK-MEL-28 melanoma
# SK-MEL-5 melanoma = test system: SK-MEL-5 melanoma
# SK-OV-3 ovarian = test system: SK-OV-3 ovarian
# SN12C renal = test system: SN12C renal
# SNB-19 CNS = test system: SNB-19 CNS
# SNB-75 CNS = test system: SNB-75 CNS
# SW-620 colon = test system: SW-620 colon
# T-47D breast = test system: T-47D breast
# TK-10 renal = test system: TK-10 renal
# U251 CNS = test system: U251 CNS
# UACC-257 melanoma = test system: UACC-257 melanoma
# UACC-62 melanoma = test system: UACC-62 melanoma
# UO-31 renal = test system: UO-31 renal
# HOP-62 NSCLC = test system: HOP-62 NSCLC
# SR leukemia = test system: SR leukemia
smiles,measurement,setting,value
COc1cc2c(cc1OC)C13CCN4CC5=CCOC6CC(=O)N2C1C6C5CC43O (stereo not drawn),TGI,786-0 renal,> 100 µM
same,TGI,A498 renal,> 100 µM
same,TGI,A549 NSCLC,> 100 µM
same,TGI,ACHN renal,> 100 µM
same,TGI,BT-549 breast,> 100 µM
same,TGI,CAKI-1 renal,> 100 µM
same,TGI,CCRF-CEM leukemia,> 100 µM
same,TGI,COLO 205 colon,> 100 µM
same,TGI,DU-145 prostate,> 100 µM
same,TGI,EKVX NSCLC,> 100 µM
same,TGI,HCC-2998 colon,> 100 µM
same,TGI,HCT-116 colon,> 100 µM
same,TGI,HCT-15 colon,> 100 µM
same,TGI,HL-60(TB) leukemia,> 100 µM
same,TGI,HOP-92 NSCLC,> 100 µM
same,TGI,HS 578T breast,> 100 µM
same,TGI,HT29 colon,> 100 µM
same,TGI,IGROV1 ovarian,> 100 µM
same,TGI,K-562 leukemia,> 100 µM
same,TGI,KM12 colon,> 100 µM
same,TGI,LOX IMVI melanoma,> 100 µM
same,TGI,M14 melanoma,> 100 µM
same,TGI,MALME-3M melanoma,> 100 µM
same,TGI,MCF7 breast,> 100 µM
same,TGI,MDA-MB-231 breast,> 100 µM
same,TGI,MDA-MB-435,> 100 µM
same,TGI,MDA-N,> 100 µM
same,TGI,MOLT-4 leukemia,> 100 µM
same,TGI,NCI-H226 lung,> 100 µM
same,TGI,NCI-H23 lung,> 100 µM
same,TGI,NCI-H460 lung,> 100 µM
same,TGI,NCI-H522 lung,> 100 µM
same,TGI,NCI/ADR-RES ovarian,> 100 µM
same,TGI,OVCAR-3 ovarian,> 100 µM
same,TGI,OVCAR-4 ovarian,> 100 µM
same,TGI,OVCAR-5 ovarian,> 100 µM
same,TGI,OVCAR-8 ovarian,> 100 µM
same,TGI,PC-3 prostate,> 100 µM
same,TGI,RPMI-8226 leukemia,> 100 µM
same,TGI,SF-268 CNS,> 100 µM
same,TGI,SF-295 CNS,> 100 µM
same,TGI,SF-539 CNS,> 100 µM
same,TGI,SK-MEL-2 melanoma,> 100 µM
same,TGI,SK-MEL-28 melanoma,> 100 µM
same,TGI,SK-MEL-5 melanoma,> 100 µM
same,TGI,SK-OV-3 ovarian,> 100 µM
same,TGI,SN12C renal,> 100 µM
same,TGI,SNB-19 CNS,> 100 µM
same,TGI,SNB-75 CNS,> 100 µM
same,TGI,SW-620 colon,> 100 µM
same,TGI,T-47D breast,> 100 µM
same,TGI,TK-10 renal,> 100 µM
same,TGI,U251 CNS,> 100 µM
same,TGI,UACC-257 melanoma,> 100 µM
same,TGI,UACC-62 melanoma,> 100 µM
same,TGI,UO-31 renal,> 100 µM
C=CCN1C[C@H](C)N([C@H](c2ccc(C(=O)N(CC)CCO)cc2)c2cccc(OC)c2)C[C@H]1C,TGI,786-0 renal,> 100 µM
same,TGI,A498 renal,> 100 µM
same,TGI,A549 NSCLC,> 100 µM
same,TGI,ACHN renal,> 100 µM
same,TGI,BT-549 breast,> 100 µM
same,TGI,CAKI-1 renal,> 100 µM
same,TGI,COLO 205 colon,> 100 µM
same,TGI,DU-145 prostate,> 100 µM
same,TGI,EKVX NSCLC,> 100 µM
same,TGI,HCT-116 colon,> 100 µM
same,TGI,HCT-15 colon,> 100 µM
same,TGI,HL-60(TB) leukemia,> 100 µM
same,TGI,HOP-62 NSCLC,> 100 µM
same,TGI,HOP-92 NSCLC,> 100 µM
same,TGI,HS 578T breast,> 100 µM
same,TGI,HT29 colon,> 100 µM
same,TGI,IGROV1 ovarian,> 100 µM
same,TGI,KM12 colon,> 100 µM
same,TGI,M14 melanoma,> 100 µM
same,TGI,MALME-3M melanoma,> 100 µM
same,TGI,MCF7 breast,> 100 µM
same,TGI,MDA-MB-231 breast,> 100 µM
same,TGI,MDA-MB-435,> 100 µM
same,TGI,MDA-N,> 100 µM
same,TGI,MOLT-4 leukemia,> 100 µM
same,TGI,NCI-H226 lung,> 100 µM
same,TGI,NCI-H23 lung,> 100 µM
same,TGI,NCI-H522 lung,> 100 µM
same,TGI,NCI/ADR-RES ovarian,> 100 µM
same,TGI,OVCAR-3 ovarian,54.6 µM
same,TGI,OVCAR-4 ovarian,> 100 µM
same,TGI,OVCAR-5 ovarian,> 100 µM
same,TGI,OVCAR-8 ovarian,> 100 µM
same,TGI,PC-3 prostate,> 100 µM
same,TGI,RPMI-8226 leukemia,> 100 µM
same,TGI,SF-268 CNS,> 100 µM
same,TGI,SF-295 CNS,> 100 µM
same,TGI,SF-539 CNS,> 100 µM
same,TGI,SK-MEL-2 melanoma,> 100 µM
same,TGI,SK-MEL-28 melanoma,> 100 µM
same,TGI,SK-MEL-5 melanoma,> 100 µM
same,TGI,SK-OV-3 ovarian,> 100 µM
same,TGI,SN12C renal,> 100 µM
same,TGI,SNB-19 CNS,> 100 µM
same,TGI,SR leukemia,> 100 µM
same,TGI,SW-620 colon,> 100 µM
same,TGI,T-47D breast,> 100 µM
same,TGI,TK-10 renal,> 100 µM
same,TGI,U251 CNS,> 100 µM
same,TGI,UACC-257 melanoma,> 100 µM
same,TGI,UACC-62 melanoma,> 100 µM
same,TGI,UO-31 renal,> 100 µM
